Assay results taken from patent US5202348A, “Thiarubrine antifungal agents” (The University of British Columbia, priority 1990, dated 1993).
Values after ≈ are worked out from the molar mass of the structure shown. Read-outs that look alike come from different tables or passages of the source.

Columns and labels:
C. albicans [1] = experiment: LC50 (24 hrs.), doses required to inhibit growth in 50%, different method; assay type: cell-based, Candida albicans; conditions: for IC50: Candida albicans, 24 hrs.
Text: Doses Required to Inhibit Growth of C. albicans
in 50% During 24 hrs. (ng/ml)

Candida = experiment: Anti-Candida activity (summary); assay type: cell-based; conditions: Table 14;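 note: Letter grades where Y means active and y means less active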
Aspergillus = experiment: Anti-Aspergillus activity (summary); assay type: cell-based; conditions: Table 14;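 note: Letter grades where Y means active and y means less active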
bacteria = experiment: Anti-bacterial activity (summary); assay type: cell-based; conditions: Table 14
P815 mastocytoma = experiment: LC50 (24 hrs.), doses required to inhibit growth in 50%, different method; assay type: cell-based; conditions: Mus musculus, P815, 24 h, read-out: Lc50 24 hrs.
E. coli [2] = experiment: Growth inhibition of E. coli during 24 hours exposure; assay type: cell-based, Escherichia coli; conditions: 24 hours exposure; Table 4
Procedure: (§1) Doses inhibiting growth in 50% were estimated by plotting concentration o
(§2) a logarithmic scale and percent of growth inhibition for 24 hours exposur
(§3) on a probability scale.

C. albicans [3] = experiment: Growth inhibition of C. albicans during 24 hours exposure; assay type: cell-based, Candida albicans; conditions: 24 hours exposure; Table 3
P. aeruginosa [4] = experiment: Growth inhibition of P. aeruginosa during 24 hours exposure; assay type: cell-based, Pseudomonas aeruginosa; conditions: Table 3
C. albicans [5] = experiment: Growth inhibition of C. albicans during 24 hours exposure; assay type: cell-based, Candida albicans; conditions: 24 hours exposure; Table 4
Procedure: as §1, §2, §3

P815 = experiment: Growth inhibition of P815 mastocytoma during 24 hours exposure; assay type: cell-based, Mouse; conditions: 24 hours exposure
Procedure: P815 = Mouse mastocytoma […]
as §2, §3

P. aeruginosa [6] = experiment: Growth inhibition of P. aeruginosa during 24 hours exposure; assay type: cell-based, Pseudomonas aeruginosa; conditions: 24 hours exposure; Table 4
Procedure: as §1, §2, §3

E. coli [7] = experiment: Growth inhibition of E. coli during 24 hours exposure; assay type: cell-based, Escherichia coli; conditions: 24 hours exposure; Table 3
[8] = Table 13, read-out: Lc50 24 hrs.

| Molecule | Anti-Candida (Candida) | Anti-Aspergillus (Aspergillus) | Anti-bacterial (bacteria) | IC50 (P815 mastocytoma) [µg/mL] | Inhibition of growth of Candida albicans (C. albicans [1]) | IC50 (C. albicans [1]; [8]) [µg/mL] | also measured |
| --- | --- | --- | --- | --- | --- | --- | --- |
| Clc1ccc(COC(Cn2ccnc2)c2ccc(Cl)cc2Cl)cc1 (centres unmarked) [Econazole, reference compound] | – | – | – | – | – | – | IC50 (C. albicans [1]; Table 7, read-out: LC50 (24 hrs.), dose required to inhibit growth in 50%): 0.056 µg/mL (≈ 0.147 µM) |
| C=CC#CC1=CC=C(C#CC#CC)SS1 [Thiarubrine B, 3 (pent-3-yn-1-ynyl) 6 (3-buten-1-ynyl)-1,2-dithiacyclohexa-3,5-diene, reference compound] | Y | Y | Y | – | – | – | – |
| C=C/C=C/C#CC1=CC=C(C#CC)SS1 [Thiarubrine C, reference compound] | Y | Y | Y | – | – | – | – |
| CC#CC1=CC=C(C#CC#CC(Cl)CO)SS1 (centres unmarked) [Thiarubrine F] | Y | Y | Y | 0.14 (≈ 0.499 µM) | nanogram/ml range | 0.006 (≈ 0.0214 µM) | – |
| CC#CC1=CC=C(C#CC#CC(O)CCl)SS1 (centres unmarked) [Thiarubrine G] | Y | Y | Y | 0.09 (≈ 0.321 µM) | nanogram/ml range | 0.008 (≈ 0.0285 µM) | – |
| C=CC#CC#CC1=CC=C(C#CCO)SS1 [Thiarubrine H] | Y | – | – | 0.059 (≈ 0.241 µM) | nanogram/ml range | 0.004 (≈ 0.0164 µM) | – |
| CC#Cc1ccc(C#CC#CC(O)CO)s1 (centres unmarked) [Thiophene E] | – | – | – | – | – | – | Minimal concentration causing 50% growth inhibition (E. coli [2]): > 5.0 µg/mL; Minimal concentration causing 100% growth inhibition (C. albicans [3]): > 5.0 µg/mL; Minimal concentration causing 100% growth inhibition (P. aeruginosa [4]): > 5.0 µg/mL; Minimal concentration causing 50% growth inhibition (C. albicans [5]): 4.5 µg/mL; Minimal concentration causing 100% growth inhibition (P815; Table 3): > 5.0 µg/mL; Minimal concentration causing 50% growth inhibition (P815; Table 4): 4.0 µg/mL; Minimal concentration causing 50% growth inhibition (P. aeruginosa [6]): > 5.0 µg/mL; Minimal concentration causing 100% growth inhibition (E. coli [7]): > 5.0 µg/mL |
| Gentamycin [reference compound] | – | – | – | – | – | – | Minimal concentration causing 50% growth inhibition (E. coli [2]): 0.37 µg/mL; Minimal concentration causing 100% growth inhibition (P. aeruginosa [4]): 2.5 µg/mL; Minimal concentration causing 50% growth inhibition (P. aeruginosa [6]): 1.0 µg/mL; Minimal concentration causing 100% growth inhibition (E. coli [7]): 1.25 µg/mL |
